Experimental data as given in paper PMC9230136 (Pharmaceutics, 2022).
Entries after “also recorded” stand apart in the source; their conditions may differ.

Legend:
quiescent PBLs = assay: Cytotoxicity in human PBLs, resting; assay type: cell-based; conditions: PBL not stimulated with PHA; 72 h; read-out: IC50 PBLresting
Text: Human PBLs were obtained from healthy donors by separation on a Lymphoprep^TM (Serumwerk Bernburg AG) gradient and were used for the evaluation of the cytotoxic potential of compounds under study in normal human cells. Buffy coats were obtained from the Blood Transfusion Service, Azienda Ospedaliera of Padova and provided at this institution for research purposes without identifier. The samples were not obtained specifically for this study, and for this reason ethical approval was not required. Informed consent was obtained from blood donors according to Italian law no. 219 (21 October 2005). Data were treated by the Blood Transfusion Service according to Italian law on personal data management “Codice in materia di protezione dati personali” (Testo Unico D.L. Giugno 30, 2003 196).
After extensive washing with saline solution (BioConcept, Hank’s Buffered Saline Solution), quiescent PBLs were resuspended (1.0 × 10^6 cells/mL) in RPMI-1640 medium supplemented with 10% fetal bovine serum. Cytotoxicity evaluations were conducted also in cultures of proliferating PBLs, stimulated with […] PHA (Irvine Scientific). Both resting and proliferating lymphocytes were seeded in 96-well plates and maintained overnight at 37 °C in a humidified 5% CO2 incubator. Serial (5-fold) dilutions of the tested compounds were added, and viability was determined 72 h later by the resazurin viability assay as described above.

[1] = test system: HeLa cells in zebrafish Tg(fli1: EGFP) embryos; assay: Zebrafish xenograft model with HeLa cells; assay type: in vivo, Danio rerio; conditions: 145 or 290 nM, 24 h, 34 °C; p 0.04 and 0.01
Experimental: For the transplantation, zebrafish Tg(fli1: EGFP) embryos expressing enhanced green fluorescent protein (EGFP) specifically in vascular endothelial cells, were kept at 28 °C and manually dechorionated. Before microinjections into zebrafish embryos, HeLa cancer cells were stained with VybrantTM DiI Cell-Labeling Solution (Invitrogen, ThermoFisher, Carlsbad, CA, USA) according to the manufacturer’s protocol, in order to visualize and track them inside the larvae. Stained cells (1.0 × 10^6 cells) were suspended in 20 μL of PBS 1X obtaining a final concentration of 50 cells/nL; next, the cellular suspension was loaded into borosilicate glass capillary needles (OD/ID: 1.00/0.75 mm, World Precision Instruments, Sarasota, FL, USA). […]
Initially (time 0 h pre-treatment) and after one day post-treatment, the tumors were photographed with a Zeiss AxioObserver microscope for live-cell imaging. HeLa cell fluorescence was recorded to investigate reduction, death and migration of tumor cells. Using Fiji ImageJ software, the reduction in cancer cell fluorescence, related to the effectiveness of the anticancer drug treatments, was calculated and plotted. The fluorescence of at least 20 identically treated embryos was compared to vehicle control set to 100%.

HeLa cells = assay: Apoptosis by annexin-V-FITC/PI flow cytometry; assay type: cell-based, human
Experimental: Surface exposure of phosphatidylserine on apoptotic cells was measured by flow cytometry with a Beckman Coulter Cytomics FC500 (Beckman Coulter Italia, Milano, Italy) by adding annexin-V conjugated to fluorescein isothiocyanate (FITC) to cells according to the manufacturer’s instructions (Annexin-V Fluos, Roche Diagnostic, Monza, Italy). Simultaneously, the cells were stained with PI. Excitation was set at 488 nm, and the emission filters were at 525 and 585 nm, respectively, for FITC and PI.

Structure (SMILES): Cc1cc(Nc2ccc(F)cc2)n2nc(NCCCc3ccccc3)nc2n1 [Compound 8q]
- IC50 (quiescent PBLs): > 10 µM
- HeLa tumor cells / fluorescence in zebrafish xenograft [1]: significantly inhibited HeLa cell growth in zebrafish embryos; also recorded: number of circulating tumor cells was significantly reduced; also recorded: fluorescence intensity decreased in a dose-dependent manner; also recorded: reduced HeLa cell growth in xenografts implanted in zebrafish embryos
- concentration from which apoptosis was induced (HeLa cells): 50 nM
